Here are results for 7 compounds from patent EP2088143A1, “Novel inhibitors of mycobacterium tuberculosis complex cytochrome P450 CYP121” (priority 2008, dated 2009).

In assay [1] the target is T1, CYP121 (Mycobacterium tuberculosis, UniProt P9WPP7). In words: Spectral binding titration of CYP121 by cyclodipeptide (UV/Vis absorbance spectroscopy, type I binding). The note with it: 2 µM CYP121, Tris-HCl 50 mM pH 7.6 10% glycerol; ΔA388-ΔA416 versus cyclodipeptide concentration; mean of four experiments; read-out: binding constant (Ks).
The target of assay [2] is T1, CYP121. In words: CYP121 enzyme assay: transformation of cyclodipeptide with electron transport chain and NADPH, RP-HPLC analysis. The assay is classed as biochemical. The note with it: 30°C; for transformation of cyclodipeptide by CYP121: ~0.1 mM cyclodipeptide, 5 µM CYP121, electron transport chain, 0-60 min.
Target sequence in this assay (P9WPP7 2-396 limits assumed): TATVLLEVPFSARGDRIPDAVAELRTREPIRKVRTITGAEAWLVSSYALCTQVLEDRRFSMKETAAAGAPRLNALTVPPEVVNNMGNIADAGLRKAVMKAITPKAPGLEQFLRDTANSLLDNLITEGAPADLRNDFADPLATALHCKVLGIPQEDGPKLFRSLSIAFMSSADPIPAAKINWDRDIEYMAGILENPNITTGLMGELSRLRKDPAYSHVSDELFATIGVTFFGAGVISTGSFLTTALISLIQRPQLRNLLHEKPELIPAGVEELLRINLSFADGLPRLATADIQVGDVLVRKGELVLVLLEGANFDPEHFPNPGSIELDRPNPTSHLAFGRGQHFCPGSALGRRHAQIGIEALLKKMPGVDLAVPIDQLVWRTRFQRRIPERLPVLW
In assay [3] the target is T1, CYP121. As to the kind of experiment: Inhibition of CYP121 activity: cyclo(L-Tyr-L-Tyr) transformation in the presence of added compound, RP-HPLC analysis. It counts as biochemical.
Target sequence in this assay (P9WPP7 2-396 limits assumed): as above
In assay [4] the target is T1, CYP121. As to the kind of experiment: Co-crystallisation with CYP121 and X-ray structure of the complex. The assay is classed as binding. The note with it: co-crystals; 0.2 mM cyclo(L-Tyr-L-Phe), 0.8 mM cyclo(L-Tyr-L-Ala).
Target sequence in this assay (P9WPP7 2-396 limits assumed): as above
Assay [5] has as its target Mycobacterium tuberculosis cytochrome P450 CYP121 (Mycobacterium bovis BCG Pasteur (100% identical to Mycobacterium tuberculosis H37Rv)) (UniProt P9WPP7). In words: cell-based or functional assay.
Assay [6] has the same target. In words: spectrally estimated dissociation constant (Ks); UV/Vis titration of 2 µM CYP121, ΔA388-ΔA416 fitted to a hyperbola.

Chain of Mycobacterium tuberculosis cytochrome P450 CYP121 (Mycobacterium bovis BCG Pasteur (100% identical to Mycobacterium tuberculosis H37Rv)) (P9WPP7 whole entry): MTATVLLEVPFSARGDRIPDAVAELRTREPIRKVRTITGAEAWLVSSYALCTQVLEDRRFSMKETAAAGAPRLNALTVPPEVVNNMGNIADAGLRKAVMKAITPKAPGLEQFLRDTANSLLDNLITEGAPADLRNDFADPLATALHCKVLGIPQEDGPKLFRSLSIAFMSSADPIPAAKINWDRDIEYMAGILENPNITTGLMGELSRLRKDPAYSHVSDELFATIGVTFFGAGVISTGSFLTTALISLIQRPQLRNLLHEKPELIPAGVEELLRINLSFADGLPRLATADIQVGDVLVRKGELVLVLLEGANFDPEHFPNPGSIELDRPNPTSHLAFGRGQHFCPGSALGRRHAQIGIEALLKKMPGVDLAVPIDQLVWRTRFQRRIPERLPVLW

Consider `O=C1N[C@@H](Cc2ccc(O)c(O)c2)C(=O)N[C@H]1Cc1ccc(O)cc1` [cyclo(L-DOPA-L-Tyr), cyclo(L-3 or 5,4-dihydroxyphenylalanine-L-Tyr)], for which the Kd in assay [1] amounted to 14.7 ± 1.5 µM. Further, in assay [2] (NADPH), the “transformation of cyclodipeptide by CYP121” value is on record as “no transformation was detected”. Further, in assay [3] (1.2 mM added cyclodipeptide, 60 min incubation at 30°C), the “inhibition of cyclo(L-Tyr-L-Tyr) transformation” value is “completely inhibits”.
As for `C[C@@H]1NC(=O)[C@H](Cc2ccc(O)cc2)NC1=O` [cyclo(L-Tyr-L-Ala)], in assay [4], the “binding to CYP121 (crystal structure of the complex)” value was “bind to CYP121”.
On the same count and under the same terms, as for `O=C1N[C@@H](Cc2ccc(O)cc2)C(=O)N[C@H]1Cc1ccccc1` [cyclo(L-Tyr-L-Phe)], the entry is “bind to CYP121”.
For the compound `O=C1N[C@@H](Cc2c[nH]c3ccccc23)C(=O)N[C@H]1Cc1ccc(O)cc1` [cyclo(L-Tyr-L-Trp)], the Kd in assay [1] worked out at 63.4 ± 8.8 µM. Further, in assay [2] (NADPH), the “transformation of cyclodipeptide by CYP121” value was “can be transformed by CYP121, albeit less efficiently than cyclo(L-Tyr-L-Tyr)”. Also, the “initial cyclo(L-Tyr-L-Tyr) detected after 60 min incubation” value in assay [3] (0.11 mM cyclo(L-Tyr-L-Tyr), 1.2 mM cyclo(L-Tyr-L-Trp), 60 min, 30°C, completely absent after 30 min without inhibitor) was about 30%.
Turning to `O=C1N[C@@H](Cc2ccc(O)cc2)C(=O)N[C@H]1Cc1ccc(O)cc1` [cyclo(L-Tyr-L-Tyr)], the “time to complete conversion of cyclo(L-Tyr-L-Tyr) by CYP121” value in assay [2] (no inhibitor added) was “less than 30 min”. The “rate of cyclo(L-Tyr-L-Tyr) transformation” value in assay [2] (in vitro conditions, exogenous electron transport chain, NADPH) is given as 3.8 nmoles/min/nmole of CYP121. Further, the “transformation of cyclodipeptide by CYP121” value in assay [2] (NADPH) was “complete consumption”.
As for cyclo(L-Tyr-L-Trp) (peptide), in assay [5], the inhibition of cyclo(L-Tyr-L-Tyr) transformation by CYP121 with 1.2 mM cyclo(L-Tyr-L-Trp) (RP-HPLC) turned out to be 30.
For cyclo(L-Tyr-L-Tyr) (peptide), the Kd in assay [6] was 27.6 µM. Further, the rate of cyclo(L-Tyr-L-Tyr) transformation (nmoles/min/nmole of CYP121) in assay [5] came out at 3.8.
